Source: US10323022B2, “Pyrrolidinyl urea, pyrrolidinyl thiourea and pyrrolidinyl guanidine compounds as TrkA kinase inhibitors” (Array BioPharma Inc., priority 2011, dated 2019)

What follows are compounds tested against TrkA (Homo sapiens (Human), UniProt P04629) (assay: TrkA Omnia Assay). Settings: averaged IC50; 20 nM enzyme, 500 μM ATP, 10 μM peptide substrate.
Assay type: biochemical
Summary of the method: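 Continuous fluorescent kinase read-out (ex 360 nm, em 485 nm) over 70 min, with initial rates fitted to 4- or 5-parameter logistic curves for IC50. Final conditions: 500 μM ATP, 10 μM Omnia Tyr Peptide #4, 20 nM TrkA, MOPS pH 7.5 buffer with MgCl2 and Triton X-100; enzyme and compound preincubated 10 min at ambient temperature.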

TrkA, sequence (P04629 33-796): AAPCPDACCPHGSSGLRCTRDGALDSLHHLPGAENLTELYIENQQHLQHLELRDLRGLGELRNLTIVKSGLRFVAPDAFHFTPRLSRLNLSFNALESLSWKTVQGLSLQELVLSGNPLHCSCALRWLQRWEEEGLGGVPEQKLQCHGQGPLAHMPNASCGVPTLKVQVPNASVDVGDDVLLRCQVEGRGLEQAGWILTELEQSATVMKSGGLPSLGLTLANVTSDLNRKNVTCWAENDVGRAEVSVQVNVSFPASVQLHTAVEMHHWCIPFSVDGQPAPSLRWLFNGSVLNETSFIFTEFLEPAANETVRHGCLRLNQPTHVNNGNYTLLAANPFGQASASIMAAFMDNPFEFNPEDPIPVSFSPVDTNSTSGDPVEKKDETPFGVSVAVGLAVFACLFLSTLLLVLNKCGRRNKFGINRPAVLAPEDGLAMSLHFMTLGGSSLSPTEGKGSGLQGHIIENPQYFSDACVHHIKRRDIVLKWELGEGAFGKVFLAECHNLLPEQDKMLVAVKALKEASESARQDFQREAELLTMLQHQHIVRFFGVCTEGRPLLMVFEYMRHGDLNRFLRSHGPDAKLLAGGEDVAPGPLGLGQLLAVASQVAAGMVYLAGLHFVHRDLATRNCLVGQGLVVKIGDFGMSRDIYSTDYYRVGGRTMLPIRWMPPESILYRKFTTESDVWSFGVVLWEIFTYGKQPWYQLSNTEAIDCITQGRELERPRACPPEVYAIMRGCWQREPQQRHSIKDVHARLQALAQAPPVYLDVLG

`COCCN1C[C@@H](NC(=O)Nc2c(Cl)c(CCO)nn2-c2ccccc2)[C@H](c2ccc(F)c(F)c2)C1` [Example 449, 1-(4-chloro-3-(2-hydroxyethyl)-1-phenyl-1H-pyrazol-5-yl)-3-((3S,4R)-4-(3,4-difluorophenyl)-1-(2-methoxyethyl)pyrrolidin-3-yl)urea] and `COCCN1C[C@@H](NC(=O)Nc2c(Cl)c([C@H]3C[C@@H](O)C3)nn2-c2ccccc2)[C@H](c2ccc(F)c(F)c2)C1` [Example 452, 1-(4-chloro-3-(cis-3-hydroxvcyclobutyl)-1-phenyl-1H-pyrazol-5-yl)-3-((3S,4R)-4-(3,4-difluorophenyl)-1-(2-methoxyethyl)pyrrolidin-3-yl)urea] cannot be ordered by IC50: less than 100 nM for the first, less than 100 nM for the second.

`COCCN1C[C@@H](NC(=O)Nc2c(C)c([C@H]3C[C@@H](O)C3)nn2-c2ccccc2)[C@H](c2ccc(F)c(F)c2)C1` [Example 450, 1-((3S,4R)-4-(3,4-difluorophenyl)-1-(2-methoxyethyl)pyrrolidin-3-yl)-3-(3-(cis-3-hydroxycyclobutyl)-4-methyl-1-phenyl-1H-pyrazol-5-yl)urea] and `COCCN1C[C@@H](NC(=O)Nc2c(C)c([C@H]3C[C@H](O)C3)nn2-c2ccccc2)[C@H](c2ccc(F)c(F)c2)C1` [Example 451, 1-((3S,4R)-4-(3,4-difluorophenyl)-1-(2-methoxyethyl)pyrrolidin-3-yl)-3-(3-(trans-3-hydroxycyclobutyl)-4-methyl-1-phenyl-1H-pyrazol-5-yl)urea] cannot be ordered by IC50: less than 100 nM for the first, less than 100 nM for the second.

`COCCN1C[C@@H](NC(=O)Nc2c(Cl)c([C@H]3C[C@H](O)C3)nn2-c2ccccc2)[C@H](c2ccc(F)c(F)c2)C1` [Example 453, 1-(4-chloro-3-((1r,3S)-3-hydroxycyclobutyl)-1-phenyl-1H-pyrazol-5-yl)-3-(trans-4-(3,4-difluorophenyl)-1-(2-methoxyethyl)pyrrolidin-3-yl)urea] and `COCCN1C[C@@H](NC(=O)Nc2c(C)c([C@H]3C[C@@H](O)C3)nn2-c2ccccc2)[C@H](c2cc(F)cc(F)c2)C1` [Example 456, 1-((3S,4R)-4-(3,5-difluorophenyl)-1-(2-methoxyethyl)pyrrolidin-3-yl)-3-(3-(cis-3-hydroxycyclobutyl)-4-methyl-1-phenyl-1H-pyrazol-5-yl)urea] cannot be ordered by IC50: less than 100 nM for the first, less than 100 nM for the second.

`COCCN1C[C@@H](NC(=O)Nc2c(C)c([C@H]3C[C@@H](O)C3)nn2-c2ccccc2)[C@H](c2ccc(F)cc2)C1` [Example 454, 1-((3S,4R)-4-(4-fluorophenyl)-1-(2-methoxyethyl)pyrrolidin-3-yl)-3-(3-(cis-3-hydroxycyclobutyl)-4-methyl-1-phenyl-1H-pyrazol-5-yl)urea] and `COCCN1C[C@@H](NC(=O)Nc2c(C)c([C@H]3C[C@H](O)C3)nn2-c2ccccc2)[C@H](c2ccc(F)cc2)C1` [Example 455, 1-((3S,4R)-4-(4-fluorophenyl)-1-(2-methoxyethyl)pyrrolidin-3-yl)-3-(3-(trans-3-hydroxycyclobutyl)-4-methyl-1-phenyl-1H-pyrazol-5-yl)urea] cannot be ordered by IC50: less than 100 nM for the first, less than 100 nM for the second.

`COCCN1C[C@@H](NC(=O)Nc2c(C)c([C@H]3C[C@H](O)C3)nn2-c2ccccc2)[C@H](c2cc(F)cc(F)c2)C1` [Example 457, 1-((3S,4R)-4-(3,5-difluorophenyl)-1-(2-methoxyethyl)pyrrolidin-3-yl)-3-(3-(trans-3-hydroxycyclobutyl)-4-methyl-1-phenyl-1H-pyrazol-5-yl)urea] and `CCOc1nn(-c2ccccc2)c(NC(=O)N[C@@H]2CN(CCOC)C[C@H]2c2cc(F)cc(F)c2)c1CO` [Example 464, 1-((3S,4R)-4-(3,5-difluorophenyl)-1-(2-methoxyethyl)pyrrolidin-3-yl)-3-(3-ethoxy-4-(hydroxymethyl)-1-phenyl-1H-pyrazol-5-yl)urea] cannot be ordered by IC50: less than 100 nM for the first, less than 100 nM for the second.

First: COCCN1C[C@@H](NC(=O)Nc2c(C)c(C(=O)O)nn2-c2ccccc2)[C@H](c2ccc(F)c(F)c2)C1 [Example 458, 5-(3-((3S,4R)-4-(3,4-difluorophenyl)-1-(2-methoxyethyl)pyrroidin-3-yl)ureido)-4-methyl-1-phenyl-1H-pyrazole-3-carboxylic acid]
Second: COCCN1C[C@@H](NC(=O)Nc2c(C)c(C(N)=O)nn2-c2ccccc2)[C@H](c2ccc(F)c(F)c2)C1 [Example 463, 5-(3-((3S,4R)-4-(3,4-difluorophenyl)-1-(2-methoxyethyl)pyrrolidin-3-yl)ureido)-4-methyl-1-phenyl-1H-pyrazole-3-carboxamide]
The IC50 of the first is higher: 100 to 1000 nM for the first, less than 100 nM for the second.

`CNC(=O)c1nn(-c2ccccc2)c(NC(=O)N[C@@H]2CN(CCOC)C[C@H]2c2ccc(F)c(F)c2)c1C` [Example 459, 5-(3-((3S,4R)-4-(3,4-difluorophenyl)-1-(2-methoxyethyl)pyrrolidin-3-yl)ureido)-N,4-dimethyl-1-phenyl-1H-pyrazole-3-carboxamide] and `CCNC(=O)c1nn(-c2ccccc2)c(NC(=O)N[C@@H]2CN(CCOC)C[C@H]2c2ccc(F)c(F)c2)c1C` [Example 461, 5-(3-((3S,4R)-4-(3,4-difluorophenyl)-1-(2-methoxyethyl)pyrrolidin-3-yl)ureido)-N-ethyl-4-methyl-1-phenyl-1H-pyrazole-3-carboxamide] cannot be ordered by IC50: less than 100 nM for the first, less than 100 nM for the second.

`COCCN1C[C@@H](NC(=O)Nc2c(C)c(C(=O)N(C)C)nn2-c2ccccc2)[C@H](c2ccc(F)c(F)c2)C1` [Example 460, 5-(3-((3S,4R)-4-(3,4-difluorophenyl)-1-(2-methoxyethyl)pyrrolidin-3-yl)ureido)-N,N,4-trimethyl-1-phenyl-1H-pyrazole-3-carboxamide] and `COCCN1C[C@@H](NC(=O)Nc2c(C)c(C(=O)NC(C)C)nn2-c2ccccc2)[C@H](c2ccc(F)c(F)c2)C1` [Example 462, 5-(3-((3S,4R)-4-(3,4-difluorophenyl)-1-(2-methoxyethyl)pyrrolidin-3-yl)ureido)-N-isopropyl-4-methyl-1-phenyl-1H-pyrazole-3-carboxamide] cannot be ordered by IC50: less than 100 nM for the first, less than 100 nM for the second.

`COCCN1C[C@@H](NC(=O)Nc2c(C)c(-c3cnn(C)c3)nn2-c2ccccc2)[C@H](c2ccc(F)c(Cl)c2)C1` [Example 465, 1-((3S,4R)-4-(3-chloro-4-fluorophenyl)-1-(2-methoxyethyl)pyrrolidin-3-yl)-3-(1′,4-dimethyl-1-phenyl-1H, 1′H-3,4′-bipyrazol-5-yl)urea] and `COCCN1C[C@@H](NC(=O)Nc2c(C)c(-c3cnn(C)c3)nn2-c2ccccc2)[C@H](c2ccc(Cl)c(F)c2)C1` [Example 466, 1-((3S,4R)-4-(4-chloro-3-fluorophenyl)-1-(2-methoxyethyl)pyrrolidin-3-yl)-3-(1′,4-dimethyl-1-phenyl-1H, 1′H-3,4′-bipyrazol-5-yl)urea] cannot be ordered by IC50: less than 100 nM for the first, less than 100 nM for the second.

`COCCN1C[C@@H](NC(=O)Nc2c(C)c(-c3cnn(C)c3)nn2-c2ccccc2)[C@H](c2cc(F)cc(Cl)c2)C1` [Example 467, 1-((3S,4R)-4-(3-chloro-5-fluorophenyl)-1-(2-methoxyethyl)pyrrolidin-3-yl)-3-(1′,4-dimethyl-1-phenyl-1H, 1′H-3,4′-bipyrazol-5-yl)urea] and `CCOc1nn(-c2ccccc2)c(NC(=O)N[C@@H]2CN(CC(=O)OC)C[C@H]2c2ccc(F)c(F)c2)c1C` [Example 468, methyl 2-((3R,4S)-3-(3,4-difluorophenyl)-4-(3-(3-ethoxy-4-methyl-1-phenyl-1H-pyrazol-5-yl)ureido)pyrrolidin-1-yl)acetate] cannot be ordered by IC50: less than 100 nM for the first, less than 100 nM for the second.
